A short description of data set [1]: method code SF-AS, from DOI: 10.1002/chin.199708138, PMID: 8917646. To be noted: pH 7.4.
Data set [2] in a line: method code SF-AS, from DOI: 10.1016/s0014-827x(98)00024-x, PMID: 9679281.
Assay in data set [3]: not given
The source holds these as a separate data set.

The nature of data set [4]: method code SF-HPLC, from DOI: 10.1584/jpestics.11.469.
Data set [5] is described as follows: method code SF-AS, from DOI: 10.1006/pest.1994.1014.
Assay in data set [6]: not given
The source holds these as a separate data set.

A short description of data set [7]: method code SF, from DOI: 10.1016/j.nucmedbio.2007.12.009, PMID: 18355686. To be noted: pH 7.4.
Assay in data set [8]: not given
The source holds these as a separate data set.

Assay in data set [9]: not given
This is another data set of the same source.

Data set [10] is described as follows: method code SF-HPLC, from DOI: 10.1016/j.jpba.2011.06.023, PMID: 21782368. To be noted: pH 7.4.
Data set [11] is described as follows: method code SF-RC, from DOI: 10.1016/j.bmc.2015.06.036, PMID: 26145817. To be noted: pH 7.4.
Data set [12] is described as follows: method code SF-GR, from DOI: 10.1016/s0022-3565(25)32611-x, PMID: 7230009.
Data set [13] in a line: method code RP-HPLC, from DOI: 10.1021/jm970292n, PMID: 9371243.
The nature of data set [14]: method code SF, from PMID: 8999431. To be noted: pH 7.4.
Data set [15] in a line: method code SF-GLC, from DOI: 10.1023/a:1015803202857, PMID: 2395795.
Assay in data set [16]: not given
The source holds these as a separate data set.

Data set [17] can be described thus: method code SF-AS, from DOI: 10.1007/bf02857814, PMID: 1608986.
Data set [18] is described as follows: method code SF-HPLC, from DOI: 10.1039/p29890001935.
Data set [19] can be described thus: method code SF-HPLC, from DOI: 10.1016/j.ejmech.2003.12.002, PMID: 15051170.
Data set [20] can be described thus: method code SF-HPLC, from Thijssen, W. (1981). The relationship between Log P, Rm, log k' and the constants pi and f: a study on penicillins. Eur J Med Chem, 16(5)449-452.
A short description of data set [21]: method code SF-AS, from DOI: 10.1002/jps.2600790421, PMID: 2352153.
The nature of data set [22]: method code SF-AS, from Kourounakis, P.; Chilliard, N. (1983). Ionization constants and partition coefficients of some 1,1-diphenyl-1-alkoxy-3-dialkylamino-2-propanones with analgesic activity. Pharmazie, 38(6)388-389. To be noted: pH 7.4.
The nature of data set [23]: method code SF-AS, from DOI: 10.1016/s0026-895x(25)13808-x, PMID: 93689.
The nature of data set [24]: method code SF-HPLC, from DOI: 10.1016/0378-5173(94)90060-4. To be noted: pH 5.0.
A short description of data set [25]: method code SF-AS, from DOI: 10.3390/molecules16097565, PMID: 21894089.
Data set [26] in a line: method code SF-AS, from DOI: 10.1016/j.arabjc.2011.11.013.
Data set [27] is described as follows: method code SF-RC, from DOI: 10.1016/j.bmc.2006.11.022, PMID: 17293116. To be noted: pH 7.4.

What is called logD is the decadic logarithm of the distribution of all forms, ionised or not, between an organic phase and buffer at a given pH. A low value points to a more hydrophilic compound. For the compound `COC(=O)C1=C(C)NC(C)=C(C(=O)OCCO)C1c1cccc(Cl)c1Cl` (stereo not given), in data set [1], the log distribution coefficient (logD) turned out to be 2.37.

By logP is commonly meant the decadic logarithm of the partition coefficient of the neutral form, usually between octanol and water. A high value points to a more lipophilic compound. In the case of `CC(C)NCC(COc1cccc2ccccc12)OC(=O)C1CC1` (stereo not given), the logP was found to be 3.68.

In the case of `S=c1[nH]nc(Cn2ccc3ccccc32)n1-c1cccc2ccccc12`, the logP in data set [2] was 3.12.

Turning to `C=CCOc1ccccc1OCC(CNC(C)C)OC(=O)CCCC` (stereo not given), in [3], the logP was found to be 4.

As for `CCOC(=O)C(C)Oc1ccc(Oc2cnc3cc(C(F)(F)F)ccc3n2)cc1` (stereo not given), in data set [4], the logP was found to be 4.37.

Turning to `CC(C)(C)N(NC(=O)c1ccccc1Cl)C(=O)c1ccccc1Cl`, the logP in data set [5] was determined as 2.75.

With `C[C@]12CC[C@@H]3c4ccc(O)cc4CC[C@H]3[C@@H]1C[C@@H](O)[C@@H]2O`, in data set [6], the logP worked out at 2.45.

For the compound `CCC(C)N(C)C(=O)c1cc2ccccc2c(-c2ccccc2Cl)n1` (stereo not given), in data set [7], the logD was 4.

In data set [8], `O=C1CC[C@@](c2ccccc2)(C2CCN(Cc3ccccc3)CC2)C(=O)N1` yielded a logP of 3.55.

The compound `COC(=O)C(C)(C)Oc1ccc(C(=O)c2ccc(Cl)cc2)cc1` registered a logP in data set [9] of 4.27.

Compound `CC(C)OC(=O)CC(CNC(=O)OC(C)(C)C)c1ccc(Cl)cc1` (stereo not given) had a logD in data set [10] of 3.4.

The compound `CCN(CCCCF)c1cc(C)nc2c(-c3ccc(Cl)cc3Cl)c(C)nn12` came in with a logD in data set [11] of 2.81.

`CC1(C)[C@@H](O)C[C@H]2[C@](C)(O)[C@@H]3CC[C@@H]4[C@@H](O)[C@@]3(C[C@@H](O)[C@@]21O)C[C@@]4(C)O` registered a logP in [12] of 0.27.

Turning to `CCCOC(=O)CC(CNC(=O)OC(C)(C)C)c1ccc(Cl)cc1` (stereo not given), in data set [10], the logD was 3.

Turning to `O=C1c2c(O)cccc2Cc2cccc(-c3ccccc3)c21`, in data set [13], the logP worked out at 3.99.

For `CCC(C)C(NC(=O)c1cn(CC)c2nc(C)ccc2c1=O)C(=O)OC` (stereo not given), the logD in data set [14] stood at 2.64.

On to `CC(C)=CCN1CC[C@@]2(C)c3cc(O)ccc3C[C@@H]1[C@@H]2C`, for which, in data set [15], the logP is 3.31.

Take `CN(C)CCC=C1c2ccccc2CSc2ccccc21`: in [16], the logP was found to be 4.49.

The compound `CC(=O)N(Cc1ccccc1OCCF)c1cnccc1Oc1ccccc1` returned a logD in data set [7] of 2.99.

In data set [17], `CCn1cc(C(=O)NC(CSSCC(N)C(=O)OC)C(=O)OC)c(=O)c2ccc(C)nc21` (stereo not given) had a logP of 0.91.

The compound `Fc1ccccc1C1OCC2ON=C(c3ccccc3)C2CO1` (stereo not given) registered a logP in data set [18] of 2.35.

With `CCO[C@@H](Cc1ccc(OC/C=C/C#Cc2ccccc2)cc1)C(=O)O`, in data set [9], the logP was 3.87.

`COC(=O)C(C)NP(=O)(OCC1C=CC(n2cc(C)c(=O)[nH]c2=O)O1)Oc1cc(Cl)ccc1Cl` (stereo not given) came in with a logP in data set [19] of 1.41.

Compound `Cc1onc(-c2ccccc2)c1C(=O)NC1C(=O)N2C1S(=O)C(C)(C)C2C(=O)O` (stereo not given) returned a logP in data set [20] of 1.8.

As to `Cc1[nH]c2ccccc2c1Cc1nnc(Nc2cccc3ccccc23)s1`, in [2], the logP was 3.78.

Take `CC1(C)[C@H]2O[C@H]2[C@@H]2[C@]1(O)[C@H](O)[C@@H](O)C13C[C@@](C)(O)[C@@H](CC[C@@]1(O)[C@@]2(C)O)[C@@H]3O`: the logP in data set [12] was -0.57.

In [21], `CC(C)[C@H](NC(=O)[C@H](c1ccccc1)N(CCCl)N=O)C(=O)NC(=O)NCCCl` had a logP of 3.32.

On to `COC(C(=O)N(C)C)(c1ccccc1)c1ccccc1`, for which the logD in data set [22] came out at 0.78.

`CN1CCN(C2=Nc3cc(Cl)ccc3Nc3ccccc32)CC1` returned a logP in data set [23] of 3.32.

The compound `C=CCOc1ccccc1OCC(CNC(C)C)OC(=O)/C=C/C` (stereo not given) returned a logP in [3] of 3.65.

`COC(=O)C(C)NP(=O)(OCC1C=CC(n2cc(C)c(=O)[nH]c2=O)O1)Oc1ccc(N(C)C)cc1` (stereo not given) displayed a logP in data set [19] of 0.76.

In data set [18], `Clc1ccccc1C1OCC2ON=C(c3ccccc3)C2CO1` (stereo not given) yielded a logP of 2.92.

Turning to `COC(=O)C1=C(C)NC(C)=C(C(=O)OCCOC(=O)C2=CN(C)C=CC2)C1c1cccc(Cl)c1Cl` (stereo not given), the logD in [1] is 2.56.

`CC(C)[C@H](NC(=O)[C@H](Cc1ccccc1)N(CCCl)N=O)C(=O)NC(=O)NCCCl` came in with a logP in data set [21] of 3.46.

Compound `CC(C)NCC(COc1cccc2ccccc12)OC(=O)C(C)C` (stereo not given) gave a logP of 3.52.

`CCOC(=O)n1c(NC(=O)OC)nc2cc(C(=O)c3ccccc3)ccc21` yielded a logD in data set [24] of 2.93.

As to `CN(C)CCC=C1c2ccccc2CCc2ccccc21`, the logP in [16] was found to be 5.04.

`CC(C)c1ccc(N2C(=O)C(=O)N([C@H](C)c3nc4ccc(F)cc4s3)C2=O)cc1` displayed a logP in data set [25] of 1.64.

In data set [15], `OC(CCN1CCCCC1)(c1ccccc1)C1CCCCC1` (stereo not given) yielded a logP of 4.49.

In the case of `Cc1onc(-c2c(Cl)cccc2Cl)c1C(=O)NC1C(=O)N2C1SC(C)(C)C2C(=O)O` (stereo not given), the logP in data set [20] came out at 2.89.

In data set [6], `CC(=O)[C@H]1CC[C@H]2[C@@H]3CC=C4C[C@@H](O)CC[C@]4(C)[C@H]3CC[C@]12C` came in with a logP of 4.22.

On to `CCn1cc(C(=O)NC(C(=O)OC)C(C)C)c(=O)c2ccc(C)nc21` (stereo not given), for which the logD in data set [14] turned out to be 3.61.

The compound `O=C(CNc1ccc([N+](=O)[O-])cc1)Nc1ccc(Cl)cc1C(=O)c1ccccc1` had a logP in [26] of 4.68.

With `COc1ccc2nc(-c3ccc4nc(-c5ccc(N)cc5)sc4c3)sc2c1`, the logD in [27] came out at 1.56.

The compound `CN(C)CC(=O)C(Oc1ccccc1)(c1ccccc1)c1ccccc1` came in with a logD in data set [22] of 1.57.

`CCCOC(=O)n1c(NC(=O)OC)nc2cc(C(=O)c3ccccc3)ccc21` showed a logD in [24] of 3.43.

Compound `CNc1ccc(-c2nc3ccc(-c4nc5ccc(F)cc5s4)cc3s2)cc1` had a logD in [27] of 2.48.

As for `CC(=O)Oc1cccc2cc3cccc(OC(C)=O)c3c(OC(C)=O)c12`, the logP in data set [13] is 2.02.

As to `CC(C)(C)[C@]1(O)CCN2CC3c4ccccc4CCc4cccc(c43)C2C1` (stereo not given in full), in data set [23], the logP came to 4.35.

As for `Nc1ccc(S(=O)(=O)NCC(=O)Nc2ccc(Cl)cc2C(=O)c2ccccc2)cc1`, the logP in [26] was found to be 3.24.

`Cc1ccccc1C(=O)NN(C(=O)c1ccccc1Cl)C(C)(C)C` displayed a logP in [5] of 2.91.

For `CCN(CCOCCF)c1cc(C)nc2c(-c3ccc(Cl)cc3Cl)c(C)nn12`, in data set [11], the log distribution coefficient (logD) was 3.8.

Consider `CCn1cc(C(=O)NC(Cc2c[nH]cn2)C(=O)OC)c(=O)c2ccc(C)nc21` (stereo not given), for which the logP in data set [17] was determined as 0.31.

In the case of `CCOC(=O)C(C)Oc1ccc(Oc2cnc3ccccc3n2)cc1` (stereo not given), in [4], the lipophilicity (logP) was determined as 3.48.

`CN(C)CCC=C1c2ccccc2CCc2c(Cl)cccc21`: the logP in data set [8] was 5.55.
